Where two headings read alike, the source gives them in different places. Where only a bound is given, the exact number is not on record here.

Assay [1] concerns Escherichia coli (E. coli) CCM 3988. Nature of the assay: Antimicrobial activity, macrodilution method (growth by A590). In kind it is cell-based. The conditions noted are these: Escherichia coli.
In assay [2] the test system is Pseudomonas aeruginosa (P. aeruginosa) CCM 1959. The assay is described as above. The note with it: Pseudomonas aeruginosa. The assay is classed as cell-based.
The test system of assay [3] is Staphylococcus aureus (S. aureus) CCM 3953. Described as above. The conditions noted are these: Staphylococcus aureus. The assay is classed as cell-based.
The test system of assay [4] is Candida parapsilosis (C. parapsilosis) ATCC 22019. Nature of the assay: Antimicrobial activity, macrodilution method (yeast, growth by A590). In kind it is cell-based. The note with it: Lodderomyces parapsilosis.
The subject of assay [5] is Alternaria alternata (A. alternata) CCM F-128. Kind of assay: Growth of filamentous fungi, macrodilution method on solidified PDA (colony diameter). The assay is classed as cell-based. The conditions noted are these: Alternaria alternata, read-out: IC50 A. alternata.
In assay [6] the test system is Microsporum gypseum (M. gypseum) CCM F-8342. The description is as above. In kind it is cell-based. The conditions noted are these: Nannizzia gypsea, read-out: IC50 M. gypseum.
Assay [7] relates to Rhizopus oryzae (R. oryzae) CCM F-8284. The description is as above. In kind it is cell-based. The note with it: Rhizopus arrhizus, read-out: IC50 R. oryzae.
Assay [8] concerns the target T1, bovine serum albumin (BSA) (Bos taurus, UniProt P02769).
T1 construct: purchased Sigma-Aldrich Chemicals
Nature of the assay: BSA fluorescence quenching (Stern-Volmer). The conditions noted are these: 0.01 M PBS buffer pH 7.4, 25 °C, λex = 280 nm. The assay is classed as binding. The procedure: Fluorescence measurements were carried out on a Varian Cary Eclipse spectrofluorometer. The quenching studies of BSA with the Ga(III) complexes were investigated to determine whether they were able to quench fluorescence of BSA. All measurements were performed at 25 °C in 0.01 M PBS buffer (pH 7.4). The fluorescence spectra were measured at an excitation wavelength of 280 nm, with a slit width of 10 nm for the excitation and emission beams, in the range of 300–450 nm and analysed according to the classical Stern–Volmer Equation: F0/F=1+KSVQ where F0 and F are the fluorescence intensities in the absence and the presence of the quencher, respectively, KSV is the Stern–Volmer constant, and [Q] is the concentration of quencher.

A further assay has as its system any model microorganism. Nature of the assay: Antimicrobial activity, macrodilution method, all model microorganisms together. The note with it: free ligands, range 0.5–2.0 mM. In kind it is cell-based. As to the method: Cultures of bacteria (in Mueller–Hinton broth, MHB) and yeasts (in Sabouraud’s growth medium, SB) were incubated under shaking (250 rpm) at 37 °C. The growth of bacteria and yeasts was evaluated by measuring the absorbance of the growing cultures (A590) until the cultures reached the stationary growth phase. The effects of gallium(III) complexes on the growth of filamentous fungi Rhizopus oryzae (R. oryzae) CCM F-8284, Alternaria alternata (A. alternata) CCM F-128 and Microsporum gypseum (M. gypseum) CCM F-8342 (Czech Collection of Microorganisms) were observed by macrodilution method on solidified potato-dextrose growth medium (PDA). During culturing, the diameters of growing fungal colonies were measured at regular intervals. Briefly, the antimicrobial activity (bacteria and yeasts) gallium(III) complexes/ ligands were added to the microbial culture at the beginning of the cultivation-to the lag phase. Pure gallium(III) complexes/ligands were dissolved in DMSO. The final concentration of DMSO never exceeded 1.0 vol. % neither in control nor treated samples. Concentration of gallium(III) complexes used in experimental work for evaluation of antimicrobial activity was used in the range of 0.05–2 mM, for the free ligands in the range of 0.5–2.0 mM in all experiments. […] The IC50 values were evaluated from toxicity curves. All the obtained results of antimicrobial activity were compared to the activity of Ga(NO3)3.

The mark [9] stands for this setting: Filamentous fungi, solidified potato-dextrose growth medium.

T1 sequence (P02769 25-607): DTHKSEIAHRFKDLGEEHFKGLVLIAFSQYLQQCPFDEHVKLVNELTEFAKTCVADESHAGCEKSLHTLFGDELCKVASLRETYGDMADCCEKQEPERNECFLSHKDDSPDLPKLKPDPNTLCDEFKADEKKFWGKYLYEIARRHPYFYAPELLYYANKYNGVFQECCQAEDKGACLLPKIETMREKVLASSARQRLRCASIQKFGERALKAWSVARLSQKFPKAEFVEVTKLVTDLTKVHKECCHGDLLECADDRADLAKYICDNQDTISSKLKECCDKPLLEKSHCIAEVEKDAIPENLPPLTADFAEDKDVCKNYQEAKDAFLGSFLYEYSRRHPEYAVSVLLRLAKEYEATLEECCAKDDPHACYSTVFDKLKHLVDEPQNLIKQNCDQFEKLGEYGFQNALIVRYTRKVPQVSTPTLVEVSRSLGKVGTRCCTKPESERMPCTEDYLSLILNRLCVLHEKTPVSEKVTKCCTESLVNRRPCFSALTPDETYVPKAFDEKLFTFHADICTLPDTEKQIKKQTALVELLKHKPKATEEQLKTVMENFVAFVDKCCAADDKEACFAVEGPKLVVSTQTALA

As usually defined, the IC50 is the concentration that gives 50% inhibition. Consider `O=C(O)c1cccc(C(=O)O)n1` [H2Dpic, dipicolinic acid], for which the concentration for half-maximal inhibition (IC50) was over 1000 µM in assay [1] (CCM3988, read-out: IC50 E. coli); over 1000 µM in [2] (CCM1959, read-out: IC50 P. aeruginosa); over 1000 µM in assay [3] (CCM3953, read-out: IC50 S. aureus); over 1000 µM in assay [4] (ATCC22019, read-out: IC50 C. parapsilosis); over 1000 µM in assay [5]; over 1000 µM in [6]. The IC50 in assay [7] was 500 µM. Further, the “Stern–Volmer binding constant Ksv BSA” value in assay [8] was determined as 28700 M⁻¹.

As for `O=C(O)c1ccccn1` [HPic, picolinic acid], the IC50 is over 500 µM in assay [1] (CCM3988, Bacteria, MHB, 37 °C, DMSO max 1.0 vol. %, read-out: IC50 E. coli); over 500 µM in [2] (CCM1959, Bacteria, MHB, 37 °C, DMSO max 1.0 vol. %, read-out: IC50 P. aeruginosa); over 500 µM in assay [3] (CCM3953, Bacteria, MHB, 37 °C, DMSO max 1.0 vol. %, read-out: IC50 S. aureus); over 500 µM in [4] (ATCC22019, Yeast, Sabouraud's growth medium, 37 °C, read-out: IC50 C. parapsilosis); over 500 µM in assay [5] (setting [9]); over 500 µM in [6] (setting [9]). In addition, in [7] (solidified potato-dextrose growth medium), the IC50 was over 500 µM. Also, the “effect on the growth of any model microorganism” value in the assay on any model microorganism is “did not affect the growth”. Besides, the “Stern–Volmer binding constant Ksv BSA” value in assay [8] amounted to 6800 M⁻¹.

The values above are taken from publication PMC10415494, “Ga(III) pyridinecarboxylate complexes: potential analogues of the second generation of therapeutic Ga(III) complexes?” (Journal of Biological Inorganic Chemistry, 2023).
